In US4622337A, “2,2-dimethyl-3-(2-halovinyl)cyclopropane carboxlic acid ester pesticides” (priority 1972, dated 1986):

Experiments:
[1] = system: female flies (houseflies); experiment: Synergisability with sesamex, 2 μg per fly pretreatment; format: in vivo, Musca domestica; conditions: for Approx. Synergistic factor: sesamex, 2 μg. per fly; for LD 50 active compound + synergist: pretreated with 2 μg. per fly sesamex; for LD 50 active compound only: untreated flies
Method: (§1) Female flies were treated on the thorax with a one microliter drop of insecticide dissolved in acetone. Two replicates of 15 flies were used at each dose rate and 6 dose rates were used per compound under test. After treatment, the flies were maintained at a temperature of 20° C.±1° and kill was assessed 24 and 48 hours after treatment. LD50 values were calculated in micrograms of insecticide per fly and relative toxicities were calculated from the inverse ratios of the LD50 values.

[2] = system: mustard beetles (Phaedon cochleariae Fab); experiment: Relative toxicity to mustard beetles, topical micro drop; format: in vivo; conditions: 5-benzyl-3-furylmethyl (1R)-trans-chrysanthemate = 1000; inverse ratio of LD50; topical, 48 hours
Method: (§2) The toxicity of these new esters was tested by the procedure described in detail in our above mentioned application and the following results were obtained:
(§3) The insecticidal acitivity of the esters of the invention was assessed against houseflies and mustard beetles using the following techniques:
Acetone solutions of the test compound were applied ventrally to adult mustard beetles using a micro drop applicator. The treated insects were maintained for 48 hours after which time kill is assessed. Two replicates of 40 to 50 mustard beetles were used at each dose level and 3 to 4 dose levels were used for each compound. Again, LD50 values were calculated and relative toxicities were calculated for the inverse ratios of LD50 (see Elliott et al, J. Sci. Food Agric. 20, 561, (1969)).
(§4) Relative toxicities were calculated by comparison with 5-benzyl-3-furylmethyl(1R)-trans-chrysanthemate which is one of the most toxic chrysanthemate esters known to houseflies and mustard beetles, its toxicity being about 24 times that of allethrin to houseflies and 65 times that of allethrin to mustard beetles.

[3] = system: houseflies (Musca domestica); experiment: Relative toxicity to houseflies, topical drop on thorax; format: in vivo; conditions: 5-benzyl-3-furylmethyl (1R)-trans-chrysanthemate = 1000; inverse ratio of LD50; topical, female flies
Method: as §2, §3
as §1, with “values. (see Sawicki et al, Bulletin of the World Health Organization, 35,893, (1966) and Sawicki et al, Entomologia and Exp. Appl. 10, 253, (1967)).” for “values.”
as §4

[4] = system: female flies (houseflies); experiment: Synergisability with Sesamex, 5 micrograms per fly 3 hours before; format: in vivo, Musca domestica
Method: The following results were obtained
By repeating the above synergisability test but pretreating flies instead with 5 micrograms per fly of the synergist Sesamex 3 hours before applying the pyrethroid, the following results were obtained: […]

SMILES	Relative Toxicity, Mustard Beetles [2]	Relative Toxicity, Houseflies [3]	further results
CC(C)=CC1C(C(=O)OCc2coc(Cc3ccccc3)c2)C1(C)C (racemic) [5-benzyl-3-furyl methyl (1RS)--cis-trans-chrysanthemate, reference compound]	–	–	Approx. Synergistic factor [1]: ~13
CC1(C)[C@H](C=C(Cl)Cl)[C@H]1C(=O)OCc1cccc(Oc2ccccc2)c1 (racemic) [Compound P21F, 3-Phenoxybenzyl(1RS)-trans-2,2-dimethyl-3-(2,2-dichlorovinyl)cyclopropane carboxylate]	790	400	LD 50 active compound + synergist [1]: 0.00033 μg. per female fly; Approx. Synergistic factor [1]: ~39; LD 50 active compound only [1]: 0.013 μg. per female fly
CC1(C)C(C=C(Cl)Cl)C1C(=O)OC(C#N)c1cccc(Oc2ccccc2)c1 (racemic) [Compound P21P, (αRS)-cyano-3-phenoxybenzyl-(1RS)-cis-trans-3-(2,2-dichlorovinyl)-2,2-dimethyl cyclopropane carboxylate]	≥ 5000	1300	LD50 Active compound (flies pretreated with synergist) ([4]; 5 micrograms per fly Sesamex 3 hours before): 0.00088 µg; Approx. synergist factor ([4]; Sesamex, 5 micrograms per fly): ~8.3; LD 50 active compound only ([4]; without synergist): 0.0073 µg
CC1(C)[C@H](C(=O)OCc2coc(Cc3ccccc3)c2)[C@@H]1C=C(Cl)Cl (relative stereo) [Compound P21D]	1700	1200	LD 50 active compound + synergist [1]: 0.00046 μg. per female fly; Approx. Synergistic factor [1]: ~12; LD 50 active compound only [1]: 0.0058 μg. per female fly
CC1(C)[C@H](C(=O)OCc2cccc(Oc3ccccc3)c2)[C@@H]1C=C(Cl)Cl (relative stereo) [Compound P21G]	780	680	LD 50 active compound + synergist [1]: 0.00037 μg. per female fly; Approx. Synergistic factor [1]: ~22; LD 50 active compound only [1]: 0.0083 μg. per female fly
CC/C=C\[C@H]1[C@@H](C(=O)OCc2coc(Cc3ccccc3)c2)C1(C)C [Compound A cis]	–	–	LD 50 active compound + synergist [1]: 0.0012 μg. per female fly; Approx. Synergistic factor [1]: ~6; LD 50 active compound only [1]: 0.0074 μg. per female fly
CC1(C)[C@H](C(=O)OC(C#N)c2cccc(Oc3ccccc3)c2)[C@@H]1C=C(Br)Br (stereo partly drawn) [Compound P29B, (αRS)-cyano-3-phenoxybenzyl(1R)cis-2,2-dimethyl-3-(2,2-dibromovinyl)cyclopropane carboxylate]	11000	10000	–
CC1(C)[C@H](C=C(Br)Br)[C@H]1C(=O)OCc1cccc(Oc2ccccc2)c1 [Compound P29C, 3-phenoxybenzyl(1R)trans-2,2-dimethyl-3-(2,2-dibromovinyl)-cyclopropane carboxylate]	4000	1100	–
CC1(C)[C@H](C=C(Br)Br)[C@H]1C(=O)OC(C#N)c1cccc(Oc2ccccc2)c1 (stereo partly drawn) [Compound P29D, (αRS)-cyano-3-phenoxybenzyl(1R)trans-2,2-dimethyl-3-(2,2-dibromovinyl)-cyclopropane carboxylate]	5200	4100	–
CC1(C)[C@H](C=C(Cl)Cl)[C@H]1C(=O)OC(C#N)c1cccc(Oc2ccccc2)c1 (stereo partly drawn) [Compound P29E, (αRS)-cyano-3-phenoxybenzyl(1R)trans-2,2-dimethyl-3-(2,2-dichlorovinyl)-cyclopropane carboxylate]	3100	3900	–
CC1(C)[C@H](C(=O)OC(C#N)c2cccc(Oc3ccccc3)c2)[C@@H]1C=C(Cl)Cl (stereo partly drawn) [Compound P29J, (αRS)-cyano-3-phenoxybenzyl(1R)-cis-2,2-dimethyl-3-(2,2-dichlorovinyl)-cyclopropane carboxylate]	4200	11000	–
CC1(C)[C@H](C=C(Cl)Cl)[C@@H]1C(=O)OC(C#N)c1cccc(Oc2ccccc2)c1 (stereo partly drawn) [Compound P29K, (αRS)-cyano-3-phenxoybenzyl(1S)-cis-2,2-dimethyl-3-(2,2-dichlorovinyl)-cyclopropane carboxylate]	130	140	–
CC1(C)[C@H](C=C(F)F)[C@H]1C(=O)OCc1coc(Cc2ccccc2)c1 [Compound P31A]	1900	3900	–
CC1(C)[C@H](C=C(F)F)[C@H]1C(=O)OCc1cccc(Oc2ccccc2)c1 [Compound P31B]	270	620	–
CC1(C)[C@H](C=C(F)F)[C@H]1C(=O)OC(C#N)c1cccc(Oc2ccccc2)c1 (stereo partly drawn) [Compound P31C]	730	840	–
CC1(C)[C@H](C(=O)OCc2coc(Cc3ccccc3)c2)[C@@H]1C=C(F)F [Compound P31D]	1300	2300	–
CC1(C)[C@H](C(=O)OCc2cccc(Oc3ccccc3)c2)[C@@H]1C=C(F)F [Compound P31E]	850	1800	–
CC1(C)[C@H](C(=O)OC(C#N)c2cccc(Oc3ccccc3)c2)[C@@H]1C=C(F)F (stereo partly drawn) [Compound P31F]	2200	1200	–
CC1(C)[C@H](C(=O)OCc2cccc(C(=O)c3ccccc3)c2)[C@@H]1C=C(Br)Br [Compound P39A, 3-benzoylbenzyl(1R)cis-2,2-dimethyl-3-(2,2-dibromovinyl)-cyclopropane carboxylate]	830	50	–
CC1(C)[C@H](C=C(F)F)[C@H]1C(=O)OCc1cccc(C(=O)c2ccccc2)c1 [Compound P39C, 3-benzoylbenzyl(1R)trans-2,2-dimethyl-3-(2,2-difluorovinyl)-cyclopropane carboxylate]	50	6	–
CC1(C)[C@H](C(=O)OCc2cccc(C(=O)c3ccccc3)c2)[C@@H]1C=C(F)F [Compound P39D, 3-benzoylbenzyl(1R)-cis-2,2-dimethyl-3-(2,2-difluorovinyl)-cyclopropane carboxylate]	500	20	–
CC/C=C\[C@@H]1[C@@H](C(=O)OCc2cccc(Cc3ccccc3)c2)C1(C)C [Compound S]	170	120	–
CC1(C)[C@H](C=CCl)[C@H]1C(=O)OCc1coc(Cc2ccccc2)c1 [K]	1600	1300	–
C#CC(OC(=O)[C@@H]1[C@H](C=C(Br)Br)C1(C)C)c1cccc(Oc2ccccc2)c1 (stereo partly drawn) [ME7]	5000	1100	–
C=CCC1=C(C)C(OC(=O)[C@@H]2[C@@H](C=C(F)F)C2(C)C)CC1=O (stereo partly drawn) [ME9]	50	50	–
C=CCC1=C(C)C(OC(=O)[C@@H]2[C@H](C=C(F)F)C2(C)C)CC1=O (stereo partly drawn) [ME10]	30	40	–
CC1(C)C(C=C(Br)Br)C1C(=O)OC(C#N)c1cccc(Oc2ccccc2)c1 [P29B (non-crystalline isomer), (αR)-cyano-3-phenoxybenzyl(1R)cis-2,2-dimethyl-3-(2,2-dibromovinyl)cyclopropane carboxylate]	4000	3500	–
C=C/C=C\CC1=C(C)[C@@H](OC(=O)[C@@H]2[C@@H](C=C(C)C)C2(C)C)CC1=O [Pyrethrin I, reference compound]	1600	12	–
C=CCC1=C(C)C(OC(=O)[C@@H]2[C@@H](/C=C\CC)C2(C)C)CC1=O (stereo partly drawn) [Q]	69	60	–
CC/C=C\[C@@H]1[C@@H](C(=O)OCc2cccc(Oc3ccccc3)c2)C1(C)C [T]	300	240	–
